Experiment [1] concerns the target T1, Methionyl-tRNA synthetase, putative (Trypanosoma brucei brucei, UniProt Q38C91).
T1 sequence (Q38C91 whole entry): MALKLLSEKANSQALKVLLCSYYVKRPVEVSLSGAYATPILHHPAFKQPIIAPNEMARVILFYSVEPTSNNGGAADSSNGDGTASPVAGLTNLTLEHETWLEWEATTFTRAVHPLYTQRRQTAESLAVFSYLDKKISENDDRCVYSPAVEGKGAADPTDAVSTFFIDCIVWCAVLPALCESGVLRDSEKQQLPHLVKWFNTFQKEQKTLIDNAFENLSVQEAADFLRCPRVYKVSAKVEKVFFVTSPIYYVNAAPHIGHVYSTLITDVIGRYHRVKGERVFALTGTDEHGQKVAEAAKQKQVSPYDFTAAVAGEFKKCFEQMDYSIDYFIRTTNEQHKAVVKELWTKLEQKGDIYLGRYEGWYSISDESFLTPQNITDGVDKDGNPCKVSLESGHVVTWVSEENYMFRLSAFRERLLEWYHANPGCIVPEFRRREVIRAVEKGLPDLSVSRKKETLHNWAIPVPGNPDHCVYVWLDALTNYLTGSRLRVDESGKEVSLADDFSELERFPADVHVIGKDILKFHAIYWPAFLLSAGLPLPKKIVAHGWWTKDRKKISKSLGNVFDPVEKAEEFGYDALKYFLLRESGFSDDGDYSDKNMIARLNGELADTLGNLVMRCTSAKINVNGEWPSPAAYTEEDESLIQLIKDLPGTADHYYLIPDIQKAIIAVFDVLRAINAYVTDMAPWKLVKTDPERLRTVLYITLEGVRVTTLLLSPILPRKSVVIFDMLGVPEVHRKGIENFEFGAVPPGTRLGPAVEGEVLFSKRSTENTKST
The class given is functional, Trypanosoma brucei brucei strain 927/4 GUTat10.1.

Experiment [2] concerns the target T1, Methionyl-tRNA synthetase, putative. The class given is functional, Trypanosoma brucei brucei strain 927/4 GUTat10.1. This is another data set of the same source.
Experiment [3] in a line: Counterscreen for inhibitors of Trypanosoma brucei methionyl tRNA synthetase (MetRS): Luminescence-based cell-based high throughput dose response assay to identify compounds that are cytotoxic to Jurkat human T lymphocyte cells. The class given is functional.
Experiment [4] is described as follows: blockers of CRF-binding protein–CRF-R2 complex – cell-based, uHTS hits, 384-well, dose response (AID 651639). The experiment is classed as functional, Homo sapiens. Conditions: read-out: IC50_Mean.
Experiment [5] has as its target T2, Corticotropin-releasing factor receptor 2/Corticotropin-releasing factor-binding protein (Homo sapiens, UniProt P24387+Q13324).
T2 sequence (Q13324 whole entry): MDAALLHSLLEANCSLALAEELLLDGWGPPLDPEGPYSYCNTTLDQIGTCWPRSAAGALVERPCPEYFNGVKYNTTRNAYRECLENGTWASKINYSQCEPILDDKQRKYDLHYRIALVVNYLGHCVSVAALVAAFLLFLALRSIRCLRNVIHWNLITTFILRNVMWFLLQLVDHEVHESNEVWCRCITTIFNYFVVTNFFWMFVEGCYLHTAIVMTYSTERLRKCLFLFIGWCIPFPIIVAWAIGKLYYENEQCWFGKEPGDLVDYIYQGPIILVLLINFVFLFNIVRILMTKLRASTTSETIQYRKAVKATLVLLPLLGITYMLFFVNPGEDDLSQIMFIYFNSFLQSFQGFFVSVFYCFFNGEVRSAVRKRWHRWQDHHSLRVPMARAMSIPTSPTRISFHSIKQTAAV
T2 sequence (P24387 whole entry): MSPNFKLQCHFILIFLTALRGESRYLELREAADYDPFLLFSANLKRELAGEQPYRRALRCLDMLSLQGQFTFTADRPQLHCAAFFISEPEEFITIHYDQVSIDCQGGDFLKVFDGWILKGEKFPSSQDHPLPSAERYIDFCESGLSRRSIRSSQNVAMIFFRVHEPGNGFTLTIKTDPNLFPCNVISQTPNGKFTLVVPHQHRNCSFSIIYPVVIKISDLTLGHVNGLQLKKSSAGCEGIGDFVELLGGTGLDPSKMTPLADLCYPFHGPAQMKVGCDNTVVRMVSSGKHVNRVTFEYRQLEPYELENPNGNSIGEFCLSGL
Briefly: activators of CRF receptor 2 with binding protein – uHTS hits, confirmation (AID 602473). The class given is functional. The conditions noted are these: read-out: EC50_Mean.

Experiment [6] addresses T2, Corticotropin-releasing factor receptor 2/Corticotropin-releasing factor-binding protein. Briefly: Dose Response confirmation of uHTS hits for small molecule antagonists of the CRF-binding protein and CRF-R2 receptor complex. The class given is functional. Conditions: read-out: IC50_Mean.
The target of experiment [7] is T3, Sentrin-specific protease 8 (Homo sapiens, UniProt Q96LD8).
T3 sequence (Q96LD8 whole entry): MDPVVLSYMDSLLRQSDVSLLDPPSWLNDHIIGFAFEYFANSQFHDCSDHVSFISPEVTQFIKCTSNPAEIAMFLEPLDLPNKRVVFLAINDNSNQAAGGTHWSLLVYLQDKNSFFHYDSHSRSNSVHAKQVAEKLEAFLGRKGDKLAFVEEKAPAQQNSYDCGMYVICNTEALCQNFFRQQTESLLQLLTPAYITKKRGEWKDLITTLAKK
The class given is functional.

Experiment [8] addresses T3, Sentrin-specific protease 8. The experiment is classed as functional. This is another data set of the same source.
A further experiment has as its target Large T antigen (Simian virus 40, UniProt P03070). The class given is functional, Betapolyomavirus macacae.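 Note: Confirmatory-stage PubChem screen for compounds that inhibit SV40 T antigen.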
Another experiment concerns H4. The experiment can be described thus: Luminescence Cell-Based Dose Response HTS to Identify Activators of 5'UTR Stem-Loop Driven Prion Protein mRNA Translation in H4 Neuroglioblastoma Cells. [Related pubchem assays: 1829 (Project Summary), 1814 (Primary HTS)]. The class given is functional. Conditions: Homo sapiens.
Experiment [9] can be described thus: Fluorescence-based cell-based high throughput dose response assay for inhibitors of the interaction of nucleotide-binding oligomerization domain containing 2 (NOD2) and the receptor-interacting serine-threonine kinase 2 (RIPK2). The class given is functional, Homo sapiens.
Experiment [10] is described as follows: Luminescence Cell-Based Dose Confirmation HTS to Identify Activators of 5'UTR Stem-Loop Driven Alpha-Synuclein mRNA Translation in H4 Neuroglioblastoma Cells. [Related pubchem assays: 1829 (Project Summary), 1814 (Primary HTS)]. The experiment is classed as functional.
Experiment [11] can be described thus: microbe, parasite or virus in culture. The class given is functional. Conditions: Mycobacterium tuberculosis.
Experiment [12] addresses T4, Heat shock factor protein 1 (Mus musculus, UniProt P38532).
T4 sequence (P38532 whole entry): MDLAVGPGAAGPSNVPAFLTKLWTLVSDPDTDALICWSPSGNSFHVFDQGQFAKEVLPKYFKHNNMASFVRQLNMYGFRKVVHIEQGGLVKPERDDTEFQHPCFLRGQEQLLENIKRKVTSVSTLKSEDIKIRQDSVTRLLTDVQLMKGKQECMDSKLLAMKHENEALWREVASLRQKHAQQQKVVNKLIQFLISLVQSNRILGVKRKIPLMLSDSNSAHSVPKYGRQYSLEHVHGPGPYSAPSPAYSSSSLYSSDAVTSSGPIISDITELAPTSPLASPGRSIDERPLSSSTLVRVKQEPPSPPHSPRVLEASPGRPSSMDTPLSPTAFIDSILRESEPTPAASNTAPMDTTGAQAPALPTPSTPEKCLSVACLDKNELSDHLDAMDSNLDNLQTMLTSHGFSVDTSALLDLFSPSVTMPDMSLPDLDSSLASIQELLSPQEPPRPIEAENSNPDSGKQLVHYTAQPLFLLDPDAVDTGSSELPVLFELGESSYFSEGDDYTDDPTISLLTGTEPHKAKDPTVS
Briefly: decrease of HSF1-responsive luciferase luminescence – cell-based, NIH3T3, dose retest, confirmation (AID 2382).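 Note: NIH3T3 fibroblasts with HSF1-driven luciferase reporter stressed by proteasome inhibitor MG132; luminescence from HSF1-driven luciferase expression after 8 hours of MG132 stress.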 The experiment is classed as functional.

The nature of experiment [13]: Luminescence Cell-Based Dose Response HTS to Identify Activators of Luciferase Translation or Activity in H4 […] Cells. [Related pubchem assays: 1829 (Project Summary), 1814 (Primary HTS)]. The experiment is classed as functional.
For a further experiment, the target named is Paired box protein Pax-8 (Homo sapiens, UniProt Q06710). The experiment can be described thus: PAX8 transcriptional activity inhibition in RMG-I – RMG-I cells, luciferase, cherry-pick, dose response (AID 687027).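 Note: luciferase reporter driven by Pax8 target thyroperoxidase promoter measured by SteadyGlo luminescence.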 The class given is functional, cell-based.
The target in experiment [14] is T5, Adenosylmethionine-8-amino-7-oxononanoate aminotransferase (Mycobacterium tuberculosis, UniProt P9WQ81).
T5 sequence (P9WQ81 whole entry): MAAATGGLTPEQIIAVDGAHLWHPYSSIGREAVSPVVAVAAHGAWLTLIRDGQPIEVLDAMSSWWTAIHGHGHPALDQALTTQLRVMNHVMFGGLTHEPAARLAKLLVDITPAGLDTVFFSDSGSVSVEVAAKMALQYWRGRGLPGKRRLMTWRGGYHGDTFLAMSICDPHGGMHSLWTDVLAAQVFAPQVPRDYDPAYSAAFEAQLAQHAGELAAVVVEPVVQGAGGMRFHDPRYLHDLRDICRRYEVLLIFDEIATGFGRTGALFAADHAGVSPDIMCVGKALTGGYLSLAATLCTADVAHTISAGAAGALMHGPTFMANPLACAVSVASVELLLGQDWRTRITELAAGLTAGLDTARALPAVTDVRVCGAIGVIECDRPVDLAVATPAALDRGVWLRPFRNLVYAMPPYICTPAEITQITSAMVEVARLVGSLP
Briefly: Mycobacterium tuberculosis BioA enzyme inhibitor Measured in Biochemical System Using Plate Reader - 2163-02_Inhibitor_Dose_CherryPick_Activity. The experiment is classed as functional, Mycobacterium tuberculosis UT205.

Experiment [15] deals with T6, Long-chain-fatty-acid--AMP ligase FadD28 (Mycobacterium tuberculosis, UniProt P9WQ59).
T6 sequence (P9WQ59 whole entry): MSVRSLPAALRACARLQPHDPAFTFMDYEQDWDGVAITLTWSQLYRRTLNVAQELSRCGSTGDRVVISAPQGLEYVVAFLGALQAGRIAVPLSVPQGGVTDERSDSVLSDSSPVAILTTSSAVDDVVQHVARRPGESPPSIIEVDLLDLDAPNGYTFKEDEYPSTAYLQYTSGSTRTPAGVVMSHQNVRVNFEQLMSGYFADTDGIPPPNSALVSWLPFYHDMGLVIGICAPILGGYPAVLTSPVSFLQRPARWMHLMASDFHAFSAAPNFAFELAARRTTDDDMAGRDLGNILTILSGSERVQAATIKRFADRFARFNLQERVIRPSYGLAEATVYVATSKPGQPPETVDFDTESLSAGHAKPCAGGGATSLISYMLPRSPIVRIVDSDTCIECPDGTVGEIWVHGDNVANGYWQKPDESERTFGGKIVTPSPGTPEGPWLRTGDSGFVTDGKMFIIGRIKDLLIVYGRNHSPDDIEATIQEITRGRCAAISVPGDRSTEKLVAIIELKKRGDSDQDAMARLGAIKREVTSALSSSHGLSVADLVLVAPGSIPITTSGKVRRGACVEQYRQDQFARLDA
The experiment can be described thus: Fluorescence polarization aasay to screen for inhibitors that compete for the binding of FadD28 to a bisubstrate Measured in Biochemical System Using Plate Reader - 2147-01_Inhibitor_Dose_CherryPick_Activity. The experiment is classed as functional, Mycobacterium tuberculosis H37Rv. In general terms: Fluorescence polarisation rises when a labelled molecule tumbles more slowly, as on binding a larger partner.

The target in experiment [16] is Eukaryotic translation initiation factor 4E (Mus musculus, UniProt P63073). The experiment can be described thus: blockers of eIF4G binding by eIF4E – biochemical, TR-FRET, dose response (AID 855).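 Note: potency for disrupting eIF4E binding to eIF4GI seen as loss of FRET.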 The experiment is classed as functional.

Activity calls are given as the source filed them.

As a reminder, the AC50 is the midpoint of the concentration-response curve, whichever way the signal moves.

Sequence of Large T antigen (P03070 whole entry): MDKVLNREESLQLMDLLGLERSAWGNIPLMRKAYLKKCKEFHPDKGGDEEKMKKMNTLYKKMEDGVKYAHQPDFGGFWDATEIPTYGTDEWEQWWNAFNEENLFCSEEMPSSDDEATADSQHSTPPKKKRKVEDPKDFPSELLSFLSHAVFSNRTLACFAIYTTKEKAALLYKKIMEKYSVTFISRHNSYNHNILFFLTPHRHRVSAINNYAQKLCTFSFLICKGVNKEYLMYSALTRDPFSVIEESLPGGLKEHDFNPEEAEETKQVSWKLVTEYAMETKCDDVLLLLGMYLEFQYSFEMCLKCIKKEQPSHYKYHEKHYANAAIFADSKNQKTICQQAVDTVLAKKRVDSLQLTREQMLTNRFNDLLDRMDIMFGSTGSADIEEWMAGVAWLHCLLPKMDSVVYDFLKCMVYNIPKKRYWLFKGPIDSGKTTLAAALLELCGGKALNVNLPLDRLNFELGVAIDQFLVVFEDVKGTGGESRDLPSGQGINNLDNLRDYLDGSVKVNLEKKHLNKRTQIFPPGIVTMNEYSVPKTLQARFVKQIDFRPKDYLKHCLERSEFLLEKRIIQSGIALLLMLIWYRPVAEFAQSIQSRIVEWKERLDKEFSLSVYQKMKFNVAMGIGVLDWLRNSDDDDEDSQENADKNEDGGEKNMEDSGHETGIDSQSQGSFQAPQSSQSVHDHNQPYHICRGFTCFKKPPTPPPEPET
Sequence of Paired box protein Pax-8 (Q06710 whole entry): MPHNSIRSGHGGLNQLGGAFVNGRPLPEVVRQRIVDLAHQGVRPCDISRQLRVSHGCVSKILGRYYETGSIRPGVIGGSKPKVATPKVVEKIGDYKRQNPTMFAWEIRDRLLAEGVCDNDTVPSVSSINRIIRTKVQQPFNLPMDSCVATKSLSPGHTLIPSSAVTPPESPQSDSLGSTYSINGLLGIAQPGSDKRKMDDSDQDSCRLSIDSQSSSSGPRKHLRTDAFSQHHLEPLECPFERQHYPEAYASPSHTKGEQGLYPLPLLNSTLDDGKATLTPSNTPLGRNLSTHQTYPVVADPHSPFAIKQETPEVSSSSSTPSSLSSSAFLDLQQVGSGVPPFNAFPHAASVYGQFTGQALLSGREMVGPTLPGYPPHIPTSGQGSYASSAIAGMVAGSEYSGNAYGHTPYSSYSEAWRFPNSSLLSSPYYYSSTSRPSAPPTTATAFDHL
Sequence of Eukaryotic translation initiation factor 4E (P63073 whole entry): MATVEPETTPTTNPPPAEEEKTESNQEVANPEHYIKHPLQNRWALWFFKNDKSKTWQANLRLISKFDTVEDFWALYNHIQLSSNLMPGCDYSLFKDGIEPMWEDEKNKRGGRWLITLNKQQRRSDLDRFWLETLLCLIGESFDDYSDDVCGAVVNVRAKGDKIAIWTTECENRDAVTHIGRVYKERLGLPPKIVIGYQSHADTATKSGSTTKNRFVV

For `OC(c1cc(Cl)cc(Cl)c1)c1nc(-c2ccccc2F)c[nH]1` (configuration not stated), the results for the IC50 in [1], in experiment [2] and in experiment [3] were 9.87 µM (active), 6.33 µM (active) and 74.4 µM (inactive), respectively.
For the compound `COc1ccc(Cl)cc1NC(=O)C(C)NC(c1ccccc1)c1ccccc1` (configuration not stated), the IC50 in experiment [4] was > 20 µM (inactive); in experiment [6], 1.14 µM (active). Besides, the EC50 in experiment [5] is > 53 µM (inactive).
Turning to `C[C@@H]1C=C(C(=O)NCc2nc3ccccc3[nH]2)O[C@H](OCc2ccc(CO)cc2)C1`, the IC50 is 2.04 µM (active) in [1], 1.47 µM (active) in experiment [2] and 83.3 µM (inactive) in experiment [3].
For `O=C(CSc1nc2cc3ccccc3cc2[nH]1)Nc1ccc(F)cc1`, in that order: 119 µM (inactive), 100 µM (inactive) and 51.7 µM (inactive).
For the compound `CCOc1ccc(N2Nc3[nH]nc(N)c3N2)cc1`, the IC50 was 52.3 µM (active) in experiment [7], 40.6 µM (active) in experiment [8] and 18 µM (active) at Large T antigen.
For the compound `COc1nn(-c2ccccc2)c(=O)c(Cl)c1Cl`, the EC50 was > 120 µM (not active) with H4, > 120 µM (not active) in experiment [10], 9.89 µM (active) in experiment [12] and > 120 µM (not active) in experiment [13]. In addition, the IC50 in experiment [9] (Homo sapiens) was 4.58 µM (active). Further, the CC50 in experiment [11] is 8.79 µM (active). For the same compound, the AC50 at Paired box protein Pax-8 is 6.72 µM (active).
Take `COC(=O)C[C@H]1CC[C@@H]2[C@H](COC[C@@H](O)CN2C(=O)Nc2cccc(F)c2)O1`: the AC50 in experiment [14] is 13.7 µM (active).
With `CC(=O)c1cccc(NC(S)=NC2CCCCCCC2)c1`, in [15], the AC50 was > 100 µM (inactive).
As to `Cc1ccccc1-n1c(SCC(=O)N(C)C2CCS(=O)(=O)C2)nc2ccccc2c1=O` (configuration not stated), in experiment [14], the AC50 was 2.39 µM (active).
With `O=C(Nc1cc(-c2ccccc2)sc1C(=O)O)c1cccc(F)c1`, the IC50 was 14.2 µM (active) in [4] and 23.5 µM (active) in experiment [6]. Also, the EC50 in [5] was > 53 µM (inactive).
Turning to `CC1=CC2OC3CC4OC(=O)C=CC=CC(C(C)O)OCC(O)C(C)CC(=O)OCC2(CC1O)C4(C)C31CO1` (configuration not stated), the IC50 in experiment [9] was 49.8 µM (inactive).
As for `COc1ccc(Cc2c(-c3ccc(OC)c(OC)c3)nc3ccc(C)cn23)c(C)c1`, in experiment [14], the AC50 was 2.73 µM (active).
Regarding `COc1cccc(NC(=O)Nc2ccc(C(C)(C)C)cc2)c1`, the IC50 in experiment [16] is 50 µM (inactive). Also, in [15], the AC50 is > 100 µM (inactive).

The values are drawn from ChEMBL document CHEMBL1201862, “PubChem BioAssay data set” (2004).
